Tests used:
Assay type in all cases: cell-based, mouse
[1] = tested on: CFU-E cells; assay: SFELE progenitor growth assay of sorted CFU-E cells; conditions: 100 nM Dex
Experimental: FIGS. 1A-1F. […] Error bars show one standard deviation. […] Error bars show one standard deviation. […] Shown is the fraction of c-kit+ cells after 72 hours. […] Cell numbers in each clone were estimated under the microscope on Day 8.
FIGS. 3A-3B. […] The experimental protocol was similar to that used in FIGS. 1A and B except that the CFU-E and BFU-E cells were purer (CD71 and CD24a^20% high and CD71 and CD24a^10% low, respectively). […] (A) Proliferation of sorted CFU-E cells. […] Error bars show one standard deviation. (B) Proliferation of sorted BFU-E cells. […] Error bars show one standard deviation.
We developed a modified version of the serum free erythroid liquid expansion culture (SFELE) medium described by Dolzning et al. (Dolznig et al., 2006).

[2] = tested on: BFU-E cells; assay: CFU-E and BFU-E colony forming assays of BFU-E cells cultured in SFELE medium; conditions: for Total colony numbers from 1,000 "BFU-E" cells: CFU-E 1 cluster / Total colony numbers from 1,000 "BFU-E" cells: large BFU-E >20 clusters / Total colony numbers from 1,000 "BFU-E" cells: small BFU-E 5-20 clusters: CD24 and CD71 10% low BFU-E cells, SFELE, 100 nM Dex and/or 333 μM DMOG; for Total colony numbers from 1000 BFU-E cells: Large BFU-E / Total colony numbers from 1000 BFU-E cells: Single CFU-E / Total colony numbers from 1000 BFU-E cells: Small BFU-E: CD71 10% low BFU-E cells, SFELE with 100 nM Dex
Experimental: Dexamethasone prevents BFU-E cell exhaustion, which allows more CFU-E cells to be formed. […] (A) The total number of cells formed from 1000 BFU-E cells at different time points. […] Standard deviation between four separate biological experiments is shown in parenthesis (n/d=not determined).
At daily intervals colony assays were performed (Table 2). As in the experiment in FIG. 3, for the first three days the total number of cells increased at the same rate in all cultures.
(§1) Colonies were scored after 3 days. […] The number of hemoglobinized early BFU-E and late BFU-E colonies was determined after 8-9 days following staining with 2,7-Diaminofluorene (Sigma Chemical, St. Louis, Mo.).

[3] = tested on: CFU-E cells; assay: Colony forming assays of sorted CFU-E fractions (Table S2)
Text: Separation of BFU-E and CFU-E cells by expression of CD71, CD24a or both CD71 and CD24a. C-kit positive BFU-E and CFU-E cells were sorted from FLEP cells based on expression of CD71, CD24a or both CD71 and CD24a. In all experiments the BFU-E fraction was the subset of c-kit^positive FLEP cells with the 10% lowest expression of CD71 and/or CD24a, while the CFU-E fraction was the subset with 20% highest expression of CD71 and/or CD24a. Sorted BFU-E and CFU-E populations were subjected to colony forming assays under two different conditions.
The potential of the sorted cells to form large BFU-E, small BFU-E, CFU-G/M/Mk, and CFU-GEMM colonies (±standard deviation) was determined by a second assay in methyl cellulose containing 10U Epo, 20 nM IL-3, 20 nM IL-6 and 50 nM SCF per mL, and was scored at day 8-9. […] To determine the effect of DMOG, colony assays of sorted BFU-E (CD71 and CD24a^10% low) cells were also performed in the presence of 333 μM DMOG.
as §1

[4] = tested on: BFU-E cells; assay: FACS analysis of c-kit expression of BFU-E cells in SFELE culture; conditions: day 3 of culture, 100 nM Dex
Experimental: FIGS. 1A-1F. Glucocorticoids stimulate stress erythropoiesis by enhancing erythroblast output predominantly from BFU-E progenitors. […] Error bars show one standard deviation. […] Error bars show one standard deviation. […] Shown is the fraction of c-kit+ cells after 72 hours. […] Cell numbers in each clone were estimated under the microscope on Day 8. 80% of sorted BFU-E cells form more than 100 daughter cells in erythroid expansion culture.

[5] = CD71 10% low cells, SFELE with Dex, Day 3
[6] = Day 3 of culture, 100 nM Dex or 333 μM DMOG alone
[7] = CD24a 20% high cells, 100 nM Dex
[8] = CD71 20% high cells, 100 nM Dex
[9] = CD71 and CD24a 20% high cells (n = 1), line marked +
[10] = sorted CD71 20% high cells, with Dex

SMILES: C[C@@H]1C[C@H]2[C@@H]3CCC4=CC(=O)C=C[C@]4(C)[C@@]3(F)[C@@H](O)C[C@]2(C)[C@@]1(O)C(=O)CO [Dex, dexamethasone]
- Average number of erythroblasts formed from each CFU-E cell [1]: 28
- Expansion of sorted CFU-E cells (production of erythroblasts), peak ([1]; CD71 20% high cells, peak at day 3): 28 fold
- Total colony numbers from 1,000 "BFU-E" cells: CFU-E 1 cluster ([2]; day 0 (before culture)): 30 (±11)
- Total colony numbers from 1,000 "BFU-E" cells: large BFU-E >20 clusters ([2]; day 0 (before culture)): 423 (±31)
- Total colony numbers from 1,000 "BFU-E" cells: small BFU-E 5-20 clusters ([2]; day 0 (before culture)): 262 (±64)
- Total colony numbers from 1,000 "BFU-E" cells: CFU-E 1 cluster ([2]; day 1): 424 (±271)
- Total colony numbers from 1,000 "BFU-E" cells: large BFU-E >20 clusters ([2]; day 1): 463 (±61)
- Total colony numbers from 1,000 "BFU-E" cells: small BFU-E 5-20 clusters ([2]; day 1): 1,766 (±695)
- Total colony numbers from 1,000 "BFU-E" cells: CFU-E 1 cluster ([2]; day 2): 11,468 (±1,088)
- Total colony numbers from 1,000 "BFU-E" cells: large BFU-E >20 clusters ([2]; day 2): 482 (±110)
- Total colony numbers from 1,000 "BFU-E" cells: small BFU-E 5-20 clusters ([2]; day 2): 5,771 (±1,625)
- Total colony numbers from 1,000 "BFU-E" cells: CFU-E 1 cluster ([2]; day 3): 60,699 (±22,369)
- Total colony numbers from 1,000 "BFU-E" cells: large BFU-E >20 clusters ([2]; day 3): 400 (±108)
- Total colony numbers from 1,000 "BFU-E" cells: small BFU-E 5-20 clusters ([2]; day 3): 8,334 (±2,489)
- Total colony numbers from 1,000 "BFU-E" cells: CFU-E 1 cluster ([2]; day 4): 138,600 (±24,546)
- Total colony numbers from 1,000 "BFU-E" cells: CFU-E 1 cluster ([2]; day 5): 261,550 (±98,160)
- Total colony numbers from 1,000 "BFU-E" cells: large BFU-E >20 clusters ([2]; day 5): 0
- Total colony numbers from 1,000 "BFU-E" cells: small BFU-E 5-20 clusters ([2]; day 5): 10,271 (±3,344)
- Total colony numbers from 1,000 "BFU-E" cells: CFU-E 1 cluster ([2]; day 6): 249,160 (±55,172)
- Total colony numbers from 1,000 "BFU-E" cells: CFU-E 1 cluster ([2]; day 7 (performed twice)): 176,000 (±15,556)
- Total colony numbers from 1,000 "BFU-E" cells: CFU-E 1 cluster ([2]; day 8 (performed twice)): 66,000 (±56,003)
- Total colony numbers from 1000 BFU-E cells: Large BFU-E ([2]; 0 h (before culture)): 241 (±79)
- Total colony numbers from 1000 BFU-E cells: Single CFU-E ([2]; 0 h (before culture)): 73 (±26)
- Total colony numbers from 1000 BFU-E cells: Small BFU-E ([2]; 0 h (before culture)): 277 (±89)
- Total colony numbers from 1000 BFU-E cells: Large BFU-E ([2]; 24 h): 181 (±132)
- Total colony numbers from 1000 BFU-E cells: Single CFU-E ([2]; 24 h): 1,164 (±593)
- Total colony numbers from 1000 BFU-E cells: Small BFU-E ([2]; 24 h): 1,568 (±604)
- Total colony numbers from 1000 BFU-E cells: Large BFU-E ([2]; 48 h): 130 (±53)
- Total colony numbers from 1000 BFU-E cells: Single CFU-E ([2]; 48 h): 25,342 (±5,714)
- Total colony numbers from 1000 BFU-E cells: Small BFU-E ([2]; 48 h): 6,730 (±515)
- Total colony numbers from 1000 BFU-E cells: Large BFU-E ([2]; 72 h): 150 (±58)
- Total colony numbers from 1000 BFU-E cells: Single CFU-E ([2]; 72 h): 122,413 (±14,086)
- Total colony numbers from 1000 BFU-E cells: Small BFU-E ([2]; 72 h): 15,350 (±3,838)
- Total colony numbers from 1000 BFU-E cells: Single CFU-E ([2]; 120 h): 904,050 (±434,778)
- Late BFU-Es per initial sorted BFU-E cell ([2]; CD71 10% low cells, SFELE with Dex, Day 2): 67
- CFU-Es formed per BFU-E [2, 5]: 122
- Late BFU-Es per initial sorted BFU-E cell [2, 5]: 153
- BFU-Es per plated BFU-E [2, 6]: 8.7
- CFU-Es per plated BFU-E [2, 6]: 51
- Increase of number of CFU-E cells between Days 3 and 5 ([2]; cultures with Dex): 7.3 fold
- CFU-G/M/Meg colonies [3, 7]: 0.3 (±0.3) colonies per 1000 plated cells
- GEMM colonies [3, 7]: 0 colonies per 1000 plated cells
- large BFU-E colonies [3, 7]: 0.4 (±2) colonies per 1000 plated cells
- small BFU-E colonies [3, 7]: 15 (±2) colonies per 1000 plated cells
- CFU-E colonies [3, 8]: 565 (±120) colonies per 1000 plated cells
- CFU-G/M/Meg colonies [3, 8]: 0 colonies per 1000 plated cells
- GEMM colonies [3, 8]: 0 colonies per 1000 plated cells
- large BFU-E colonies [3, 8]: 0 colonies per 1000 plated cells
- small BFU-E colonies [3, 8]: 17 (±31) colonies per 1000 plated cells
- CFU-E colonies [3, 9]: 526 colonies per 1000 plated cells
- CFU-G/M/Meg colonies [3, 9]: 0 colonies per 1000 plated cells
- GEMM colonies [3, 9]: 0 colonies per 1000 plated cells
- large BFU-E colonies [3, 9]: 1 colonies per 1000 plated cells
- small BFU-E colonies [3, 9]: 29 colonies per 1000 plated cells
- Cells forming early BFU-E-derived colonies [3, 10]: 0%
- Cells forming late BFU-E-derived colonies [3, 10]: 1.7%
- Cells forming single-CFU-E colonies [3, 10]: 57%
- Cells still expressing c-kit [4]: 55%

From patent US20130059783A1, “COMPOSITIONS AND METHODS FOR EXPANDING BFU-E CELLS” (priority 2010, published 2013)
